This test deals with Serine/threonine-protein phosphatase PP1-alpha catalytic subunit (Homo sapiens) (UniProt P62136). Briefly: PP1 inhibitors, OMFP dephosphorylation, late-stage follow-up, biochemical, fluorescence, OMFP substrate, set 3 (AID 652213). The settings on record: purified PP1, OMFP dephosphorylation, at 6.7 µM (top of the series).

Activity calls are given as the source filed them. How the calls were made is not given here.

Sequence of Serine/threonine-protein phosphatase PP1-alpha catalytic subunit (Homo sapiens) (P62136 whole entry, looked up): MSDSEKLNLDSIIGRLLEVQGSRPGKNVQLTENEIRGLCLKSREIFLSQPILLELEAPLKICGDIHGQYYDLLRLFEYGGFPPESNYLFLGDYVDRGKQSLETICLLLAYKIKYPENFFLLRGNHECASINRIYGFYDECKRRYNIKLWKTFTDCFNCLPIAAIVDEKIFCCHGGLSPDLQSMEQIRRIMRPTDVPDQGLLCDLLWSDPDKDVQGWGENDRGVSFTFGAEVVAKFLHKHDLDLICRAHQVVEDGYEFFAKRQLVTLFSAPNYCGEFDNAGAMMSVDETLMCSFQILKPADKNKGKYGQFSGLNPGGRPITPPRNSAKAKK

As to `COc1ccc(Sc2nc(-c3ccccn3)ncc2OC)cc1`, the activity is 72.4%.
Next, `COc1ccc2c(Cl)c(C(=O)N/N=C/c3ccc4c(c3)OCO4)sc2c1`: 20.2% (inactive); `COc1ccc(Cl)cc1C(=O)Nc1cccc(-c2ccc3nncn3n2)c1`: 56.6%; `Oc1ccccc1/C=N/Nc1cc(N2CCCC2)nc(N2CCCC2)n1`: 4.03% (inactive).
Next, `Nc1cc2nsnc2cc1Br`: -10.1% (inactive).
Next, `O=c1[nH]c(Nc2ccccc2)cc2ccccc12`: 4.07% (inactive).
On to `O=C(O)c1cc(-c2ccc(Cl)c(Cl)c2)n(-c2ccc(F)cc2)n1`, for which the activity was 57.7%.
As for `CCOC(=O)c1nn(-c2ccc(C)cc2)c(=O)c2c(N)scc12`, the figure is 4.75% (inactive); as for `COc1ccccc1Sc1nc(-c2ccccn2)ncc1OC`, 63.1%; as for `N#Cc1c(-c2ccc(Cl)cc2)cc(-c2cccs2)nc1SCC(=O)O`, 45.4%.
As for `COc1ccc(C(=O)c2nccc3cc(OC)c(OC)cc23)cc1OC`, the activity was 5.53% (inactive).
As for `CCOC(=O)c1cnc(-n2cc(C)cn2)nc1NCc1ccc2c(c1)OCO2`, the figure is 16.5% (inactive); as for `COc1ccc(NC(=O)C2C3CCC(O3)C2C(=O)O)c(OC)c1` (centres undefined), 35.3%; as for `COc1cnc(-c2ccccn2)nc1Sc1ccc(F)cc1`, 53.8%.
As for `Cc1ccc(-n2nc(C(=O)O)cc2-c2ccc(Cl)cc2)cc1`, the figure is 54.8%.
As for `CCOC(=O)c1cnc(-n2nc(C)cc2C)nc1NCCc1ccccc1`, the figure is 68.3%; as for `CCOC(=O)c1sc2nc3c(SCC(=O)O)cc(C(=O)c4cc(F)ccc4O)cn3c(=O)c2c1C`, 65.9%.
Take `CCOC(=O)c1cnc(-n2nc(C)cc2C)nc1NCc1ccccc1`: the activity is 62.5%.
Next, `COc1ccc(CN2C(=O)Cc3c2nc(N)c2c(N)nc(N4CCCCC4)c(C#N)c32)cc1`: -0.66% (inactive); `CCCCn1c(NC(=O)c2ccco2)c(C(=O)OCC)c2nc3ccccc3nc21`: -8.57% (inactive); `COc1cc(Br)c(C(=O)c2nccc3cc(OC)c(OC)cc23)cc1OC`: -11.4% (inactive).
Next, `CCOC(=O)c1cnc(-n2nc(C)cc2C)nc1NC(C)c1ccccc1` (centres undefined): 69.4%.
Next, `O=C(NC1(O)C(=O)c2ccccc2C1=O)c1ccccc1`: -6.67% (inactive); `N#Cc1c(N2CCCC(O)C2)nc(N)c2c(N)nc3c(c12)CC(=O)N3C12CC3CC(CC(C3)C1)C2` (centres undefined): 5.14% (inactive).
In the case of `CC(C)(CS(=O)(=O)[O-])NC(=O)CC[N+](C)(C)CCO`, the activity was 49.7%.
As to `c1ccc(Nc2nc(-c3ccccn3)cs2)cc1`, the activity is 62%.
Next, `O=C(NC1(O)C(=O)c2ccccc2C1=O)c1c(Cl)cccc1Cl`: -3.06% (inactive).
As for `CCOC(=O)C1=C(C)OC2(O)c3ccccc3C(=O)C12O` (centres undefined), the figure is 27.1% (inactive).
As for `COc1ccc(Cn2c(N)c(C(=O)NCc3ccco3)c3nc4ccccc4nc32)cc1OC`, the figure is 3.93% (inactive); as for `O=C1Nc2ccccc2N2CCCC12` (centres undefined), -7.49% (inactive); as for `O=C(O)c1cc(-c2ccc(Cl)cc2)n(-c2cccc(Cl)c2)n1`, 55.6%.
In the case of `Oc1ccc(/C=N/Nc2cc(N3CCOCC3)nc(N3CCOCC3)n2)c(O)c1`, the activity is 7.02% (inactive).
As for `COc1cnc(-c2ccccn2)nc1Sc1ccc(Cl)cc1`, the figure is 54.6%.
Turning to `CCCCN(CC)c1nc(N)c2c(N)nc(OCC)cc2c1C#N`, the activity was 4.31% (inactive).
Next, `O=S(=O)(Cc1cc(NCc2ccccc2)nc(-c2ccccn2)n1)c1ccccc1`: 50%.
Next, `c1ccc(-c2nccc(-c3ccc(-n4cnc5ccccc54)cc3)n2)nc1`: 62.4%.
Next, `Clc1ccc(-n2nnnc2-c2cnc(-c3ccccn3)nc2-c2cccs2)cc1`: 66.6%; `Cc1[nH]n(-c2ccccc2)c(=O)c1C(c1ccc([N+](=O)[O-])cc1)c1c(C)[nH]n(-c2ccccc2)c1=O`: -6.69% (inactive); `COc1cnc(-c2ccccn2)nc1Oc1cccc(C(F)(F)F)c1`: -4.64% (inactive).
On to `Cc1nnc(NC(=O)C2C3C=CC(O3)C2C(=O)O)s1` (centres undefined), for which the activity is 2.61% (inactive).
As for `COc1cnc(-c2ccccn2)nc1Sc1ccc(C)cc1`, the figure is 62.9%.
Next, `CCn1c2ccccc2c2cc(NC(=O)COC(=O)c3ccc(NC(=O)CC#N)cc3)ccc21`: 49%; `CCOC(=O)c1sc(N2C(=O)C(O)=C(C(=O)c3ccco3)C2c2cccc([N+](=O)[O-])c2)nc1C` (centres undefined): 26.6%; `O=C(Nc1nc(-c2ccccn2)cs1)C1CC(=O)N(c2ccc3c(c2)OCCO3)C1` (centres undefined): 42.3%.
Next, `COc1cnc(-c2ccccn2)nc1Sc1ccccc1Cl`: 68.7%; `COc1ccc(OCCCC(=O)Nc2nc(-c3ccccn3)cs2)cc1`: 26.8%.
In the case of `CN1CCN(C(c2ccccn2)c2cc(Cl)c3cccnc3c2O)CC1` (centres undefined), the activity is 69.7%.
For `COc1cnc(-c2ccccn2)nc1Oc1cccc(Cl)c1`, the activity was 46.4%.
Next, `Oc1cccc(/C=N/Nc2cc(N3CCCC3)nc(N3CCCC3)n2)c1`: 18.5% (inactive); `COc1cnc(-c2ccccn2)nc1Sc1cccc(Cl)c1`: 64.1%.
As for `Cc1ccc(C(=O)NC2(O)C(=O)c3ccccc3C2=O)cc1C`, the figure is 1.19% (inactive); as for `O=C(O)C1C2CCC(O2)C1C(=O)NC1CCCCC1` (centres undefined), 26.2% (inactive); as for `O=C(O)c1cc(-c2ccc(Cl)c(Cl)c2)n(-c2ccccc2)n1`, 59.9%.
As for `O=C(NC1(O)C(=O)c2ccccc2C1=O)c1ccc(C(F)(F)F)cc1`, the figure is 8.58% (inactive); as for `COc1cnc(-c2ccccn2)nc1Sc1ccccc1`, 64.9%; as for `CCOc1ccc(NC(=S)Nc2ccc3nsnc3c2)cc1`, 2.39% (inactive).
Take `CCCN(CC1CC1)c1nc(N)c2c(N)nc(OC)cc2c1C#N`: the activity is 0.2% (inactive).
As for `Nc1nc(-c2ccccn2)nc(N)c1Cc1ccc(Cl)cc1Cl`, the figure is 67.1%.
Next, `COc1ccc(NC(=S)Nc2ccc3nsnc3c2)cc1`: -1.36% (inactive); `CC(=O)C(C(C)=O)C1(O)C(=O)c2ccccc2C1=O`: 1.17% (inactive).
Next, `O=C1CCCC2=C1C1(O)C(=O)c3ccccc3C1(O)O2` (centres undefined): 3.07% (inactive).
On to `CCOC(=O)c1cnc(-n2nc(C)cc2C)nc1NC1CCCCC1`, for which the activity was 59.7%.
Next, `Cc1cc(C)c(S(=O)(=O)/N=C2\C=C(Sc3ncn[nH]3)C(=O)c3ccccc32)cc1C`: 5.84% (inactive); `Cc1ccc(C(=O)NNc2cc(N3CCCC3)nc(N3CCCC3)n2)cc1`: 4.62% (inactive).

For the origin of these results see PubChem BioAssay AID652213 (The Scripps Research Institute Molecular Screening Center, 2013).
